Values joined by “and” are separate entries in the source; they are usually repeats but may differ in a detail not shown here. Identical values can stand only once. “Also recorded” adds a separate entry of the source. Like-named read-outs stand apart in the source and are kept apart here.

The term viability denotes a read-out of living cells in per cent, often relative to untreated cells.

Series [1] in a line: Cytotoxicity assay J774, resazurin reduction. Format: cell-based, murine. Conditions: mouse, J774 macrophage cells, cytotoxicity, 72 h; for viability at 72 h, 2.5 µM: read-out: Residual viability, J774 (2.5 µM); for viability at 72 h, 25 µM: read-out: Residual viability, J774 (25 µM). The essentials:
(§1)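 J774 and HepG2 cells were seeded at 0.5x10^5 cell/well and exposed to serially diluted compounds for 72 h at 37°C, 5% CO2. Viability was read by fluorescence resazurin reduction (λEx 550 nm, λEm 590 nm).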
For orientation: Alamar Blue is a resazurin reagent that responds to reducing activity.

Series [2] concerns Murine macrophage cells (J774). The experiment in a line: Cytotoxicity assay J774, resazurin reduction. Format: cell-based. Conditions: cytotoxicity, 72 h. In a few lines: as §1
The test system of series [3] is L. major promastigotes. The series can be described thus: L. major promastigote viability, resazurin reduction. The class given is cell-based, Leishmania major. Conditions: Leishmania major; for EC50: dose response, triplicate. The source says: (§2) The infectivity of the parasites was boosted by passaging in Balb/c mice and culturing the infected lymph nodes after six weeks. L. infantum (MHOM / BR / 76 / M4192) parasite was passaged in the same media formulation with 0.5% urine.

Series [4] relates to intracellular L. infantum amastigotes. The experiment in a line: Parasite rescue assay (intramacrophage, J774 infected with L. infantum). The class given is cell-based, Leishmania infantum.
Series [5] can be described thus: Body weight and tolerability during treatment in the mouse model. Format: in vivo, Balb/c mice. As to conditions: for Body weight during treatment course: PHT-39 13.75 mg/kg i.p. or s.c., AmB 8 mg/kg i.p., vs DMSO. As to the method: (§3) L. major metacyclic promastigotes were prepared from a five day stationary phase culture through Ficoll gradient centrifugation according to previous studies with minor changes: Briefly, a 20% and 10% Ficoll gradient were prepared in PBS and M199 media, respectively and placed in a 14 ml falcon tube. Then, 1x10^9 L. major promastigotes were loaded on top of gradient and centrifuged. Metacyclic parasites were collected between two layers. Four groups of mice (n = 6) were challenged by subcutaneous injection of 2x10^6 stationary phase metacyclic promastigotes (50 μl in PBS) into the left hind footpad. Two weeks after infectious challenge, animals were treated by i.p or intralesional (s.c) PHT-39 injection (13.75 mg/kg body weight), daily or every other day, respectively, for ten days. AmB (8 mg/kg body weight) was applied as positive control drug (i.p injection for ten days) and 5% DMSO in distilled water was applied as negative control (s.c injection for ten days) (Table 1).
(§4) Every four days after the challenge, body weight was monitored and footpad swelling changes were measured (Footpad swelling = (height + width)/2) with a metric caliper (Kroeplin, IP65, D-series, external measuring gauge).

Series [6] deals with L. major. The experiment in a line: Cutaneous leishmaniasis mouse model: lymph node parasite burden (qPCR) and footpad swelling. Format: in vivo, Balb/c mice. As to conditions: for Parasite load in popliteal lymph nodes (qPCR kDNA) vs DMSO control: PHT-39 13.75 mg/kg i.p. daily or s.c. every other day; for Parasite load in popliteal lymph nodes (qPCR kDNA) vs DMSO control / Footpad swelling vs DMSO control: AmB 8 mg/kg i.p.; for Footpad swelling vs DMSO control: day 21 post challenge. The protocol: Female Balb/c mice, aged 6–8 weeks, were purchased from the breeding stock in Czech Republic (Animalab, Czech Republic). Animals were kept under standard conditions according to European ethical guidelines for experimental animals.
as §3, §4
After the 10 days course of treatment all animals were sacrificed, and popliteal lymph nodes of each infected footpad were collected for parasite load determination. Genomic DNA was extracted from the lymph nodes (DNeasy Blood and Tissue kit, Qiagen). Equal concentration of samples (125 ng) was applied to quantify leishmania kDNA with primers RV1(forward: 5’-[…]-3’) and RV2 (reverse: 5’-CCACCTG […]-3’). qPCR data was normalized using the murine house-keeping gene GAPDH amplified with primers (forward:5’[…]3’; reverse: 5’[…]3’) in parallel using Maxima SYBR green qPCR master (Thermo). qPCR was performed using Biorad CFX96 device with 95°C/ 10 min (initial denaturation), then 95°C/15s (denaturation), 60°C /30s (annealing) and 72°C/ 40s (extension) over 40 cycles. For ΔCT calculation of samples, every CT were subtracted from the same on GAPDH. Then, ΔΔCT of each group was normalized according to negative control group (DMSO).
The most significant requirement of an anti-leishmanial drug is its ability to reduce the parasite burden in the infected host. […] Briefly, four groups of 6–8 weeks Balb/c mice were challenged with 2 x 10^6 L. major promastigotes subcutaneously injected into the hind footpad. Treatment started after two weeks when a wound started to form. Two groups were treated with PHT-39 compound at doses of 13.75 mg/kg either via i.p route, daily, or s.c route, every other day for 10 days. One group received a daily dosage of AmB as a control, and another infected non-treated group was included in the study. After 10 days, popliteal lymph nodes were collected to assess parasite burden and immune response stimulation was studied in spleen cell culture supernatants.

The test system of series [7] is T. cruzi trypomastigotes. The series can be described thus: T. cruzi viability, resazurin reduction. The class given is cell-based, Trypanosoma cruzi. Conditions: 72 h; for viability at 2.5 µM / viability at 25 µM: Trypanosoma cruzi; for viability at 2.5 µM: read-out: Residual viability, T.cruzi (2.5 µM), 2.5 µM, 72 h; for viability at 25 µM: read-out: Residual viability, T.cruzi (25 µM), 25 µM, 72 h. The essentials:
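Y-strain trypomastigotes kept in supplemented liver infusion tryptose broth with 10% FCS, pH 7.2, at 28°C. Viability by fluorescence resazurin reduction; single-point screen at 2.5 μM, then 18-concentration dose response. Amphotericin B as control drug.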

Series [8] relates to L. infantum promastigotes. The series can be described thus: L. infantum promastigote viability, resazurin reduction. The class given is cell-based, Leishmania infantum. Conditions: Leishmania infantum, 72 h; for viability at 2.5 µM: read-out: Residual viability, L. infantum promastigote (2.5 µM); for viability at 25 µM: read-out: Residual viability, L. infantum promastigote (25 µM).
Description: as §2

Setting [9] is: Leishmania infantum, J774, read-out: EC50 L. infantum rescue assay, intramacrophage (J774), 18 concentrations.
Setting [10] is: PHT-39 13.75 mg/kg i.p. or s.c.

Take `C[C@@H]1[C@H](O)[C@@H](C)/C=C/C=C/C=C/C=C/C=C/C=C/C=C/[C@H](O[C@@H]2O[C@H](C)[C@@H](O)[C@H](N)[C@@H]2O)C[C@@H]2O[C@](O)(C[C@@H](O)C[C@@H](O)[C@H](O)CC[C@@H](O)C[C@@H](O)CC(=O)O[C@H]1C)C[C@H](O)[C@H]2C(=O)O` [AmB, amphotericin B, reference compound]: in series [1], the viability at 72 h, 2.5 µM was 101 ± 11.8%. For the same compound, the viability at 72 h, 25 µM in series [1] is 57.73 ± 0.52%. Further, the EC50 in series [2] (Mus musculus, J774, 72 h) was > 10000 nM; in series [2], > 16000 nM; in series [3] it was 200 nM; in series [4] (setting [9]), 600 nM; in series [4] (read-out: EC50 L. infantum rescue assay, intramacrophage (J774), 18 concentrations), 700 nM and 660 nM. The viability at 25 µM in series [4] (Leishmania infantum, J774, read-out: Residual viability, intracellular L. infantum amastigote (25 µM)) came to 15.4 ± 6.9%; in series [7], 7.4%; in series [8], 5.4 ± 0.73%. The “Body weight during treatment course” value in series [5] was “significant differences with other groups”. For the same compound, the “Parasite load in popliteal lymph nodes (qPCR kDNA) vs DMSO control” value in series [6] (10 days) was “reduce the parasite load significantly; also recorded: reduction of parasite load in the AmB group was significant”. Also, in series [6] (setting [10]), the “Footpad swelling vs DMSO control” value is listed as “reduced significantly; also recorded: effectively reduced the swelling”. Further, the “Residual viability, T.cruzi (25 µM)” value in series [7] (25 µM) was found to be 7.37±1.09%. For the same compound, the figures for the viability at 2.5 µM in series [7] and in series [8] were 8.07 ± 0.38% and 2.55 ± 0.17%, respectively.
Turning to `CC[C@@H](C)[C@H](c1nc2ccccc2n1Cc1cn(-c2ccc(C(F)(F)F)cc2)nn1)N1C(=O)c2ccccc2C1=O` [PHT-39], in series [1], the viability at 72 h, 2.5 µM amounted to 98.3 ± 2.92%. In series [1], the viability at 72 h, 25 µM was determined as 68 ± 9.09%. Further, the EC50 in series [2] (Mus musculus, J774, 72 h) is > 16000 nM; in series [3], 5900 ± 1800 nM; in series [4] (setting [9]), 1200 ± 3200 nM; in series [4] (read-out: EC50 L. infantum rescue assay, intramacrophage (J774), 18 concentrations, listed as PH-39), 1210 ± 3200 nM. The viability at 25 µM in series [3] (72 h, read-out: Residual viability, L.major promastigote (25 µM)) is 16.6 ± 1.6%; in series [4] (Leishmania infantum, J774, rescue assay in J774, 25 µM, read-out: Residual viability, intracellular L. infantum amastigote (25 µM)), 16.3%; in series [7], 31.5 ± 1.51%; in series [8], 7.71 ± 1.03%. In series [4] (rescue assay in J774, 25 µM, 25 µM), the “Residual viability, intracellular L. infantum amastigote (25 µM)” value came out at 16.34±4.67%. Besides, the “Body weight during treatment course” value in series [5] is “did not affect the body weight”. Further, the “Compound related toxicity in mice” value in series [5] (intraperitoneal or subcutaneous injection for 10 and 5 days) is “did not expose any compound related toxicity”. The “Parasite load in popliteal lymph nodes (qPCR kDNA) vs DMSO control” value in series [6] (10 days) was “did not show a significant difference; also recorded: not significantly changed”. The “Elimination of L. major infection in cutaneous leishmaniasis model” value in series [6] (PHT-39 13.75 mg/kg i.p. or s.c., 10 days, 13.75 mg/kg) is on record as “unable to eradicate L. major infection; also recorded: failed to eliminate the Leishmania infection”. The “Parasite burden in lymph nodes” value in series [6] (PHT-39 13.75 mg/kg s.c. every other day) is listed as “lower but insignificant parasite burden”. For the same compound, in series [6] (setting [10]), the “Footpad swelling vs DMSO control” value is on record as “Neither of the test groups showed significant difference with the DMSO control; also recorded: did not show any significant changes”. Besides, the viability at 2.5 µM in series [7] turned out to be 57.6 ± 1.04%; in series [8], 58.8 ± 1.22%.

For the origin of these results see PMC10994559 (PLOS Neglected Tropical Diseases, 2024).
